From ChEMBL document CHEMBL1201862, “PubChem BioAssay data set” (2004) come the findings set out here.

Common to all, as to experiment: growth of human tumour cells (NCI), 48 h
Assay [1] relates to A498.
The test system of assay [2] is ACHN.
Assay [3] relates to CAKI-1.
The subject of assay [4] is COLO 205.
The subject of assay [5] is HCT-116.
Assay [6] deals with HOP-62.
Assay [7] relates to Hs-578T.
The test system of assay [8] is IGROV-1.
Assay [9] relates to MCF7.
Assay [10] deals with MDA-MB-231.
Assay [11] relates to NCI/ADR-RES.
In assay [12] the test system is OVCAR-3.
Assay [13] deals with OVCAR-5.
The test system of assay [14] is RPMI-8226.
Assay [15] deals with RXF 393.
Assay [16] deals with SF-295.
For assay [17], the system named is SN12C.
Assay [18] has as its system UACC-257.
Assay [19] concerns UO-31.

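Results reflect a 48-hour exposure of cells in 96-well plates to compound at five concentrations. The concentration for 50% growth inhibition is given as GI50.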 Active and inactive are the calls of the source. Cut-off read from the data, not from the text of the source: active = GI50 up to about 1.1 µM and inactive = higher.

For the compound `CCOC(=O)C1=C(C)N(CC(C)C)C2(O)C(OC)CC(=O)C3C(=O)N(c4ccccc4)C(=O)C132` (stereo unspecified), the GI50 in assay [1] was 78.5 µM (inactive); in assay [2] it was 24.9 µM (inactive); in assay [3], 37 µM (inactive); in assay [4] it was 39 µM (inactive); in [5], 40.5 µM (inactive); in assay [6], 68.7 µM (inactive). Moreover, the GI50 in assay [7] was 92.3 µM (inactive); in assay [8] it was 20.1 µM (inactive); in assay [9] it was 35.5 µM (inactive); in assay [10], 89.1 µM (inactive); in assay [11], 53.8 µM (inactive); in assay [12] it was 43.3 µM (inactive). Besides, the GI50 is > 100 µM (inactive) in assay [13]; 33 µM (inactive) in assay [14]; 20.7 µM (inactive) in assay [15]; 52.4 µM (inactive) in assay [16]; 36 µM (inactive) in assay [17]; 37.4 µM (inactive) in assay [18]. The GI50 in assay [19] was 20 µM (inactive).
Consider `COC(=O)c1ccc(O)c2nc3c(C=O)c(O)cc(O)c3nc12` [LOMOFUNGIN], for which the GI50 in assay [1] was 1.22 µM (inactive); in assay [2], 0.32 µM (active); in assay [3] it was 0.345 µM (active); in [4], 3.1 µM (inactive); in assay [5], 0.0977 µM (active); in assay [6], 1.36 µM (inactive). Moreover, the GI50 is 1.21 µM (inactive) in assay [7]; 0.206 µM (active) in assay [8]; 0.369 µM (active) in [9]; 3.17 µM (inactive) in assay [10]; 0.0998 µM (active) in assay [11]; 4.65 µM (inactive) in [12]. The GI50 was 0.822 µM (active) in [13]; 0.811 µM (active) in assay [14]; 7.18 µM (inactive) in [15]; 0.0441 µM (active) in assay [16]; 0.499 µM (active) in [17]; 0.782 µM (active) in assay [18]. Further, the GI50 in [19] is 0.225 µM (active).
As to `C=CCSC1=N/C(=C\c2ccc(Cl)cc2)C(=O)N1CC=C`, the GI50 is 13.6 µM (inactive) in assay [1]; 32.6 µM (inactive) in assay [2]; 37 µM (inactive) in assay [3]; 33.3 µM (inactive) in assay [4]; 25.1 µM (inactive) in assay [5]; 41.9 µM (inactive) in [6]. The GI50 is 68.7 µM (inactive) in assay [7]; 53.8 µM (inactive) in assay [8]; 18.9 µM (inactive) in assay [9]; 30.2 µM (inactive) in assay [10]; 34 µM (inactive) in [11]; 43.7 µM (inactive) in assay [12]. Besides, the GI50 is 63.8 µM (inactive) in [13]; 17.4 µM (inactive) in assay [14]; 19.8 µM (inactive) in assay [15]; 34.8 µM (inactive) in assay [16]; 34.3 µM (inactive) in assay [17]; 26.4 µM (inactive) in assay [18]. Besides, in assay [19], the GI50 is 34.7 µM (inactive).
Consider `O=c1oc2ccccc2c(Nc2ccc3c(c2)Oc2ccccc2O3)c1[N+](=O)[O-]`, for which the GI50 is 27 µM (inactive) in assay [1]; 16.3 µM (inactive) in assay [2]; 54.8 µM (inactive) in assay [3]; > 100 µM (inactive) in assay [4]; 31.8 µM (inactive) in assay [5]; 34.9 µM (inactive) in [6]. Also, the GI50 in assay [7] was 30.1 µM (inactive); in [8], 19 µM (inactive); in assay [9], 20.3 µM (inactive); in assay [10], 17.1 µM (inactive); in assay [11], 27.9 µM (inactive); in [12], 24.6 µM (inactive). For the same compound, the GI50 in assay [13] is 35.6 µM (inactive); in assay [14], 59.6 µM (inactive); in [15], 17.5 µM (inactive); in assay [16] it was 18 µM (inactive); in [17], 35.8 µM (inactive); in assay [18], 30.3 µM (inactive). In addition, the GI50 in assay [19] is > 100 µM (inactive).
